From ChEMBL document CHEMBL5537148, “Discovery of (quinazolin-6-yl)benzamide derivatives containing a 6,7-dimethoxy-1,2,3,4-tetrahydroisoquinoline moiety as potent reversal agents against P-glycoprotein-mediated multidrug resistance” (Eur J Med Chem, 2024) come the findings set out here.

Data set [1] can be described thus: Reversal fold, ratio of adriamycin IC50 to adriamycin IC50 in presence of 0.1 uM test compound for reversal of adriamycin-mediated resistance in human MCF7/ADM cells by MTT method. The data set is classed as functional. In general terms: Tetrazolium assays rely on reduction of a dye to a coloured formazan, in cell work by metabolically active cells.
For data set [2], the target named is ATP-dependent translocase ABCB1 (Homo sapiens, UniProt P08183). The data set is described as follows: Inhibition of P-gp-mediated rhodamine-123 efflux in human MCF7/ADM cells assessed as increase in fluorescence intensity at 0.1 uM incubated for 6 hrs followed by Rh123 addition for 3 hrs by Fluorescence microplate reader analysis. Type of data set: cell-based. The conditions noted are these: 9 h.
Sequence of ATP-dependent translocase ABCB1 (P08183 whole entry): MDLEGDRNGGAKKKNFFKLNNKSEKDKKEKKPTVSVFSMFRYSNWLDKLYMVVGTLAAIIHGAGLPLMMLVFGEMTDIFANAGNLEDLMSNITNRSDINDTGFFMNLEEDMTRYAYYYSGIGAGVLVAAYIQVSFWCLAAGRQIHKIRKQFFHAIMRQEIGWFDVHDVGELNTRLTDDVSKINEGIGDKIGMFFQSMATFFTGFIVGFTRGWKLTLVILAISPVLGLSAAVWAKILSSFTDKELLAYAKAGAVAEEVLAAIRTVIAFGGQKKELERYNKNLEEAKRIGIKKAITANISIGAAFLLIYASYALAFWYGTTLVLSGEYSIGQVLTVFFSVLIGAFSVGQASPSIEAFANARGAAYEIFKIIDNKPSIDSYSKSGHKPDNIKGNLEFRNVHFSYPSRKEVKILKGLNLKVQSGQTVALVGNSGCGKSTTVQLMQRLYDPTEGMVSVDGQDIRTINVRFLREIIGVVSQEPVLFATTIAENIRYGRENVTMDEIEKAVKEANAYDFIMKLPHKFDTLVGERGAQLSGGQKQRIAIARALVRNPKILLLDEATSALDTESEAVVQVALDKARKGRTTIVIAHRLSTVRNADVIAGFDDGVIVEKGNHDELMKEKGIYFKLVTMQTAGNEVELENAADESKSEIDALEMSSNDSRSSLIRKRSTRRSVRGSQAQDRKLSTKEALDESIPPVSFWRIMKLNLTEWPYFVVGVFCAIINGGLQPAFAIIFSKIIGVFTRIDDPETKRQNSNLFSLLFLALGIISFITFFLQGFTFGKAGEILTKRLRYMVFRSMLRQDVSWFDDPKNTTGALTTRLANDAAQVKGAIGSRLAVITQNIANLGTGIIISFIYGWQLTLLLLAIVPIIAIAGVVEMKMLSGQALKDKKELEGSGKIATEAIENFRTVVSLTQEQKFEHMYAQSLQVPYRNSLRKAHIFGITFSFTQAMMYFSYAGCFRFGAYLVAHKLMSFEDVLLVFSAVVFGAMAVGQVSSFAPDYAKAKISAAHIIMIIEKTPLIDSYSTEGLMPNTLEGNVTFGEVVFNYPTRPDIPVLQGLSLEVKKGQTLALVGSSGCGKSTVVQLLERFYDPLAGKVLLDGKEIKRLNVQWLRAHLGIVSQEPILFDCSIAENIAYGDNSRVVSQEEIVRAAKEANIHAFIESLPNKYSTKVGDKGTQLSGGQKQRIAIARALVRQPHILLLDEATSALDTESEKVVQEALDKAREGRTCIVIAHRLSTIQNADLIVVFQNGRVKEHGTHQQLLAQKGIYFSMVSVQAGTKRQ

In data set [3] the test system is MCF7/ADM. Description: Effect on P-gp expression in human MCF7/ADM cells at 0.1 uM by Western blot analysis. The data set is classed as functional, cell-based.
Data set [4] relates to MCF7/ADM. Description: Induction of apoptosis in human MCF7/ADM cells incubated for 48 hrs in presence of adriamycin by Annexin V-FITC/PI staining based flow cytometric analysis. Type of data set: functional, cell-based. The settings on record: dose 0.1-1 µM.
Data set [5] has as its system MCF7/ADM. The data set is described as follows: Inhibition of colony formation in human MCF7/ADM cells at 0.1 uM incubated for 15 days with fresh media replacement for every 2 days in the presence of adriamycin by crystal violet staining based imaging analysis. The conditions noted are these: time 15.0 day. The data set is classed as functional, cell-based.
The test system of data set [6] is MCF7/ADM. The data set is described as follows: Inhibition of cell migration in human MCF7/ADM cells at 0.1 uM incubated for 24 to 48 hrs in the presence of adriamycin by Wound healing assay. The data set is classed as functional, cell-based. The conditions noted are these: time 24-48 hrs.
The test system of data set [7] is MCF7/ADM. Description: Inhibition of cell invasion in human MCF7/ADM cells at 0.1 uM incubated for 24 hrs in the presence of adriamycin by Transwell assay. Type of data set: functional, cell-based.
Data set [8] has as its system MCF7/ADM. Description: Antitumor activity against human MCF7/ADM cells xenografted in BABL/c mouse assessed as decrease in tumor volume at 2 mg/kg, ip administered once every 3 days for 25 days in the presence of adriamycin. Type of data set: functional, organism-based. The conditions noted are these: time 25.0 day. Background: A xenograft is tissue or cells of one species grown in another, often human tumour cells in immunodeficient mice.

Data set [9] concerns MCF7/ADM. Description: Antitumor activity against human MCF7/ADM cells xenografted in BABL/c mouse assessed as decrease in tumor weight at 2 mg/kg, ip administered once every 3 days for 25 days in the presence of adriamycin. The conditions noted are these: time 25.0 day. Type of data set: functional, organism-based.
Data set [10] in a line: Antitumor activity against human MCF7/ADM cells xenografted in BABL/c mouse assessed as tumor growth inhibition at 2 mg/kg, ip administered once every 3 days for 25 days in the presence of adriamycin relative to control. The data set is classed as functional. The conditions noted are these: 600 h, time 25 day, read-out: TGI.
For data set [11], the system named is MCF7/ADM. Description: Antitumor activity against human MCF7/ADM cells xenografted in BABL/c mouse assessed as increase in tumor degeneration at 2 mg/kg, ip administered once every 3 days for 25 days in the presence of adriamycin by H&E staining based analysis. The data set is classed as functional, organism-based. The settings on record: time 25.0 day.
Data set [12] concerns MCF7/ADM. The data set is described as follows: Antitumor activity against human MCF7/ADM cells xenografted BABL/c mouse model assessed as increase in tumor necrosis at 2 mg/kg, ip administered once every 3 days for 25 days in the presence of adriamycin by H&E staining based analysis. Type of data set: functional, organism-based. The settings on record: time 25.0 day.
The nature of data set [13]: Toxicity in Balb/c mouse xenografted with human MCF7/ADR cells assessed as liver cell necrosis at 2 mg/kg, ip administered once every 3 days for 25 days in presence of adriamycin by H&E staining based analysis. The settings on record: in vivo, 600 h, time 25 day. Type of data set: organism-based, NCI/ADR-RES.
A short description of data set [14]: Toxicity in Balb/c mouse xenografted with human MCF7/ADR cells assessed as kidney cell necrosis at 2 mg/kg, ip administered once every 3 days for 25 days in presence of adriamycin by H&E staining based analysis. The data set is classed as organism-based, NCI/ADR-RES. The settings on record: in vivo, 600 h, time 25 day.
Data set [15] is described as follows: Toxicity in Balb/c mouse xenografted with human MCF7/ADR cells assessed as liver cell necrosis at 10 mg/kg, ip administered once every 3 days for 25 days by H&E staining based analysis. The data set is classed as organism-based, NCI/ADR-RES. The settings on record: in vivo, 600 h, time 25 day.
Data set [16] is described as follows: Toxicity in Balb/c mouse xenografted with human MCF7/ADR cells assessed as kidney cell necrosis at 10 mg/kg, ip administered once every 3 days for 25 days by H&E staining based analysis. Type of data set: organism-based, NCI/ADR-RES. The settings on record: in vivo, 600 h, time 25 day.

Calls of active or inactive are those of the source. No cut-off for these calls is given here.

`COc1cc2c(cc1OC)CN(CCNC(=O)c1ccc(-c3ccc4ncnc(NCc5cccc(Cl)c5)c4c3)cc1)CC2`: in [1], the “Ratio IC50” value is listed as 1.5. The same measure, in the same setting: next, `COc1cccc(Nc2ncnc3ccc(-c4ccc(C(=O)NCCN5CCc6cc(OC)c(OC)cc6C5)cc4)cc23)c1`: 1.3.

Take `COc1cc2c(cc1OC)CN(CCNC(=O)c1ccc(-c3ccc4ncnc(Nc5ccc(Br)cc5)c4c3)cc1)CC2`: in [1], the “Ratio IC50” value is on record as 16.3. On the same count and under the same terms, the value for `COc1cc2c(cc1OC)CN(CCNC(=O)c1ccc(-c3ccc4ncnc(Nc5cccc(Cl)c5)c4c3)cc1)CC2` was 11.6. Consider `COc1ccccc1Nc1ncnc2ccc(-c3ccc(C(=O)NCCN4CCc5cc(OC)c(OC)cc5C4)cc3)cc12`, for which the “Ratio IC50” value in data set [1] was found to be 83.4. In [2], the “inhibition (INH)” value is “Active”. Further, the outcome in the data set on MCF7/ADM [3] was inactive. Besides, the Activity result was “Dose-Dependent Effect” in the data set with MCF7/ADM [4], “Non-Toxic” in data set [13] and “Non-Toxic” in [14]. Besides, the inhibition result with MCF7/ADM [5], with MCF7/ADM [6] and in the data set with MCF7/ADM [7] was “Active” in each case. Moreover, the outcome in the data set with MCF7/ADM [8], with MCF7/ADM [9], in the data set on MCF7/ADM [11] and in the data set on MCF7/ADM [12] was Active. Also, the inhibition in vivo at 2 mg/kg in data set [10] is 69.7%.

In the case of `COc1cccc2c1C(=O)c1c(O)c3c(c(O)c1C2=O)C[C@@](O)(C(=O)CO)C[C@@H]3O[C@H]1C[C@H](N)[C@H](O)[C@H](C)O1.Cl` [DOXORUBICIN HYDROCHLORIDE], the Activity result in [15] and in [16] was “Non-Toxic” each time. In the case of `COC(=O)c1ccc(Nc2ncnc3ccc(-c4ccc(C(=O)NCCN5CCc6cc(OC)c(OC)cc6C5)cc4)cc23)cc1`, the “Ratio IC50” value in data set [1] was determined as 10.1. Regarding `COc1cc2c(cc1OC)CN(CCNC(=O)c1ccc(-c3ccc4ncnc(Nc5ccc(Cl)cc5)c4c3)cc1)CC2`, the “Ratio IC50” value in data set [1] was determined as 4.3. For `COc1cc2c(cc1OC)CN(CCc1ccc(NC(=O)c3cc(OC)c(OC)cc3NC(=O)c3cnc4ccccc4c3)cc1)CC2` [TARIQUIDAR], the “Ratio IC50” value in data set [1] worked out at 11. In addition, the “inhibition (INH)” value in data set [2] is “Active”. Moreover, the inhibition entry with MCF7/ADM [6] and in the data set with MCF7/ADM [7] was “Active” each time. Also, the result in the data set with MCF7/ADM [8] and in the data set on MCF7/ADM [9] was Active. Also, in data set [10], the inhibition in vivo at 2 mg/kg was 49.4%. Also, the Activity result in data set [13] and in [14] was “Non-Toxic” in each case. On to `COc1cc2c(cc1OC)CN(CCNC(=O)c1ccc(-c3ccc4ncnc(Nc5ccccc5Cl)c4c3)cc1)CC2`, for which, in data set [1], the “Ratio IC50” value was found to be 13.3. Still for that read-out and setting: the value for `COc1cc2c(cc1OC)CN(CCNC(=O)c1ccc(-c3ccc4ncnc(NCc5ccc(Cl)cc5)c4c3)cc1)CC2` was 9.3; that for `COc1cc2c(cc1OC)CN(CCNC(=O)c1ccc(-c3ccc4ncnc(NCc5cccc(F)c5)c4c3)cc1)CC2` was 22.2. On the same count and under the same terms, next, `COc1cc2c(cc1OC)CN(CCNC(=O)c1ccc(-c3ccc4ncnc(Nc5cccc(C)c5)c4c3)cc1)CC2`: 24.3; `COc1cc2c(cc1OC)CN(CCNC(=O)c1ccc(-c3ccc4ncnc(Nc5ccccc5)c4c3)cc1)CC2`: 3.5. On the same count and under the same terms, the value for `COc1ccc(Nc2ncnc3ccc(-c4ccc(C(=O)NCCN5CCc6cc(OC)c(OC)cc6C5)cc4)cc23)cc1F` was 25.2; that for `COC(=O)c1cccc(Nc2ncnc3ccc(-c4ccc(C(=O)NCCN5CCc6cc(OC)c(OC)cc6C5)cc4)cc23)c1` was 2.4. As to `COc1cc2c(cc1OC)CN(CCNC(=O)c1ccc(-c3ccc4ncnc(Nc5cccc(F)c5)c4c3)cc1)CC2`, the “Ratio IC50” value in data set [1] is 5.3. Turning to `COc1cc2c(cc1OC)CN(CCNC(=O)c1ccc(-c3ccc4ncnc(Nc5ccccc5F)c4c3)cc1)CC2`, in data set [1], the “Ratio IC50” value is 2.4.

With `COc1cc2c(cc1OC)CN(CCNC(=O)c1ccc(-c3ccc4ncnc(Nc5cccc(Br)c5)c4c3)cc1)CC2`, the “Ratio IC50” value in data set [1] is on record as 3.4. The same measure, in the same setting: the value for `COc1cc2c(cc1OC)CN(CCNC(=O)c1ccc(-c3ccc4ncnc(Nc5ccccc5Br)c4c3)cc1)CC2` was 16.6; that for `COc1cc2c(cc1OC)CN(CCNC(=O)c1ccc(-c3ccc4ncnc(NCc5ccc(F)cc5)c4c3)cc1)CC2` was 12.1; that for `COc1cc2c(cc1OC)CN(CCNC(=O)c1ccc(-c3ccc4ncnc(Nc5ccc(F)cc5)c4c3)cc1)CC2` was 14.1. The same measure, in the same setting: the value for `COc1cc2c(cc1OC)CN(CCNC(=O)c1ccc(-c3ccc4ncnc(Nc5ccc(C)cc5)c4c3)cc1)CC2` was 3.1; that for `COc1cc2c(cc1OC)CN(CCNC(=O)c1ccc(-c3ccc4ncnc(NCc5ccccc5)c4c3)cc1)CC2` was 3.3; that for `COc1cc2c(cc1OC)CN(CCNC(=O)c1ccc(-c3ccc4ncnc(NCc5ccccc5F)c4c3)cc1)CC2` was 7.2.

Turning to `COc1cc2c(cc1OC)CN(CCNC(=O)c1ccc(-c3ccc4ncnc(Nc5cccc(C#N)c5)c4c3)cc1)CC2`, the “Ratio IC50” value in [1] was determined as 2.5. Regarding `COc1cc2c(cc1OC)CN(CCNC(=O)c1ccc(-c3ccc4ncnc(NCc5cccc(Br)c5)c4c3)cc1)CC2`, the “Ratio IC50” value in data set [1] was 1.2. Regarding `COc1cc2c(cc1OC)CN(CCNC(=O)c1ccc(-c3ccc4ncnc(Nc5ccccc5C)c4c3)cc1)CC2`, the “Ratio IC50” value in data set [1] was 41.3.
